In patent publication US8138168B1 (Takeda Pharmaceutical Company Limited, priority 2007, dated 2012):

Target: T1, Recombinant human renin (Homo sapiens, UniProt P00797)
T1 construct: isolate the active form (residues 67-406); made in house; host or cells: FreeStyle 293-F cells (transient expression of pcDNA3.1(+)/hREN)
T1 sequence (P00797 67-406): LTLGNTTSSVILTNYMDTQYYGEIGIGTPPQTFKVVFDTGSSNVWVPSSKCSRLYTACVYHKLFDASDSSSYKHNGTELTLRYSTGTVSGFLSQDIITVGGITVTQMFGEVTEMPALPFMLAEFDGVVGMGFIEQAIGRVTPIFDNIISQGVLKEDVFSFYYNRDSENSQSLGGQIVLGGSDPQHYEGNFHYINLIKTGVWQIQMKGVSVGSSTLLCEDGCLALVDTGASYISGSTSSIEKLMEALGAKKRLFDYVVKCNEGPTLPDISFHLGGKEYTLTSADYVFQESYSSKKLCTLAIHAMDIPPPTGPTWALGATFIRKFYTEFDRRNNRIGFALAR
Assay: In vitro enzymatic activity assay of renin inhibitors (fluorogenic peptide substrate)
Type: biochemical
Details: for IC50: read-out: IC50 of Exemplified Compounds Against Renin
How it was run: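 Enzyme: recombinant human renin, 3 nM final, 10 min compound pre-incubation at 37 °C; buffer 50 mM Hepes pH 7.4 with 0.1 mg/mL BSA or extra 2% BSA; 5% DMSO.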

Compound | IC50 [nM] | Eutomer / distomer designation of the separated stereoisomers (isomers separated by preparative SFC, more or less active isomer as renin inhibitor)
COCCCn1c([C@@H]2CCCN(C(=O)C[C@H](N)c3cccc(C#N)c3)C2)nc2ccccc21 [Compound 85, 3-((S)-1-amino-3-((R)-3-(1-(3-methoxypropyl)-1H-benzo[d]imidazol-2-yl)piperidin-1-yl)-3-oxopropyl)benzonitrile] | > 1000 | 
COCCCn1c([C@@H]2CCCN(C(=O)[C@@H]3CN(C(=O)NC4CCCCC4)C[C@H]3N)C2)nc2ccccc21 [Compound 386, (3S,4R)-3-amino-N-cyclohexyl-4-((R)-3-(1-(3-methoxypropyl)-1H-benzo[d]imidazol-2-yl)piperidine-1-carbonyl)pyrrolidine-1-carboxamide] | > 1000 | 
O=C(C1CNC1)N1CCCC(c2nc3ccccc3[nH]2)C1 (stereo not shown) [Compound 55, (3-(1H-benzo[d]imidazol-2-yl)piperidin-1-yl)(azetidin-3-yl)methanone] | > 1000 | 
COCCCn1c([C@@H]2CCCN(C(=O)C[C@H](N)c3ccccc3)C2)nc2ccccc21 [Compound 89, (S)-3-amino-1((R)-3-(1-(3-methoxypropyl)-1H-benzo[d]imidazol-2-yl)piperidin-1-yl)-3-phenylpropan-1-one] | > 1000 | 
COCCCn1c([C@@H]2CCCN(C(=O)C[C@H](N)CNC(=O)c3cccc(-c4noc(C)n4)c3)C2)nc2ccccc21 [Compound 303, N-((S)-2-amino-4-((R)-3-(1-(3-methoxypropyl)-1H-benzo[d]imidazol-2-yl)piperidin-1-yl)-4-oxobuty)-3-(5-methyl-1,2,4-oxadiazol-3-yl)benzamide] | 100 to 1000 | 
COCCCn1c([C@@H]2CCCN(C(=O)C[C@@H](N)COc3cccc(OC)c3)C2)nc2ccccc21 [Compound 433, (R)-3-amino-4-(3-methoxyphenoxy)-1-((R)-3-(1-(3-methoxypropyl)-1H-benzo[d]imidazol-2-yl)piperidin-1-yl)butan-l-one] | > 1000 | 
CCCc1ccccc1NC(=O)NC[C@@H](N)CC(=O)N1CCC[C@@H](c2nc3ccccc3n2CCCOC)C1 [Compound 286, 1-((S)-2-amino-4-((R)-3-(1-(3-methoxypropyl)-1H-benzo[d]imidazol-2-yl)piperidin-1-yl)-4-oxobutyl)-3-(2-propylphenyl)urea] | 100 to 1000 | 
(R)-3-amino-4-(4-chlorophenyl)-1-((S)-3-hydroxy-3-(1-(3-methoxypropyl)-1H-benzo[d]imidazol-2-yl)piperidin-1-yl)butan-1-one [Compound 247] |  | Eutomer
COCCCn1c([C@@H]2CCCN(C(=O)C[C@H](N)CNC(=O)N3CCOCC3)C2)nc2ccccc21 [Compound 328, N-((S)-2-amino-4-((R)-3-(1-(3-methoxypropyl)-1H-benzo[d]imidazol-2-yl)piperidin-1-yl)-4-oxobutyl)morpholine-4-carboxamide] | > 1000 | 
COCCCn1c([C@@H]2CCCN(C(=O)[C@@H]3CN(C(=O)c4ccccc4OC)C[C@H]3N)C2)nc2ccccc21 [Compound 387, ((3R,4S)-4-amino-1-(2-methoxybenzoyl)pyrrolidin-3-yl)((R)-3-(1-(3-methoxypropyl)-1H-benzo[d]imidazol-2-yl)piperidin-1-yl)methanone] | > 1000 | 
COCCCn1c([C@@H]2CCCN(C(=O)C[C@H](N)CNC(=O)C3CCCCC3)C2)nc2ccccc21 [Compound 326, N-((S)-2-amino-4-((R)-3-(1-(3-methoxypropyl)-1H-benzo[d]imidazol-2-yl)piperidin-1-yl)-4-oxobutyl)cyclohexanecarboxamide] | > 1000 | 

Other lines, results leading:

IC50 [nM] | Eutomer / distomer designation of the separated stereoisomers (isomers separated by preparative SFC, more or less active isomer as renin inhibitor) | Compound
100 to 1000 |  | COCCCn1c([C@@H]2CCCN(C(=O)C[C@H](N)CNC(=O)Nc3cc(C(C)(C)C)ccc3OC)C2)nc2ccccc21 [Compound 268, 1-((S)-2-amino-4-((R)-3-(1-(3-methoxypropyl)-1H-benzo[d]imidazol-2-yl)piperidin-1-yl)-4-oxobutyl)-3-(5-tert-butyl-2-methoxyphenyl)urea]
100 to 1000 |  | COCCCn1c([C@@H]2CCCN(C(=O)C[C@H](N)CNC(=O)c3ccc4c(c3)OCCO4)C2)nc2ccccc21 [Compound 308, N-((S)-2-amino-4-((R)-3-(1-(3-methoxypropyl)-1H-benzo[d]imidazol-2-yl)piperidin-1-yl)-4-oxobutyl)-2,3-dihydrobenzo[b][1,4]dioxine-6-carboxamide]
< 100 |  | COCCCn1c([C@@H]2CCCN(C(=O)C[C@H](N)Cc3ccc4ccccc4c3)C2)nc2cc(C)ccc21 [Compound 105, (R)-3-amino-1((R)-3-(1-(3-methoxypropyl)-5-methyl-1H-benzo[d]imidazol-2-yl)piperidin-1-yl)-4-(naphthalen-2-yl)butan-1-one]
100 to 1000 |  | COCCCn1c([C@@H]2CCCN(C(=O)C[C@H](N)Cc3ccc(C(=O)NC4CCCCC4)cc3)C2)nc2ccccc21 [Compound 203, 4-((R)-2-amino-4-((R)-3-(1-(3-methoxypropyl)-1H-benzo[d]imidazol-2-yl)piperidin-1-yl)-4-oxobutyl)-N-cyclohexylbenzamide]
100 to 1000 |  | CC(=O)NCCn1c([C@@H]2CCCN(C(=O)C[C@H](N)Cc3ccc(-c4ccc(O)nc4)cc3)C2)nc2c(Cl)cccc21 [Compound 478, N-(2-(2-((R)-1-((R)-3-amino-4-(4-(6-hydroxypyridin-3-yl)phenyl)butanoyl)piperidin-3-yl)-4-chloro-1H-benzo[d]imidazol-1-yl)ethyl)acetamide]
< 100 |  | COCCCn1c([C@@H]2CCCN(C(=O)C[C@H](N)Cc3ccc(-c4ccccc4COC)cc3)C2)nc2ccccc21 [Compound 130, (R)-3-amino-4-(2′-(methoxymethyl)biphenyl-4-yl)-1-((R)-3-(1-(3-methoxypropyl)-1H-benzo[d]imidazol-2-yl)piperidin-1-yl)butan-1-one]
< 100 |  | COCCCn1c([C@@H]2CCCN(C(=O)C[C@H](N)Cc3ccc(-c4cccnc4F)cc3)C2)nc2ccccc21 [Compound 151, (R)-3-amino-4-(4-(2-fluoropyridin-3-yl)phenyl)-1-((R)-3-(1-(3-methoxypropyl)-1H-benzo[d]imidazol-2-yl)piperidin-1-yl)butan-1-one]
< 100 |  | COCCCn1c([C@@H]2CCCN(C(=O)C[C@H](N)Cc3ccc(-c4ccc(N)cc4)cc3)C2)nc2ccccc21 [Compound 170, (R)-3-Amino-4-(4′-aminobiphenyl-4-yl)-1-((R)-3-(1-(3-methoxypropyl)-1H-benzo[d]imidazol-2-yl)piperidin-1-yl)butan-1-one]
< 100 |  | COCCCn1c([C@@H]2CCCN(C(=O)C[C@H](N)Cc3ccc(-c4ccncc4Cl)cc3)C2)nc2ccccc21 [Compound 131, (R)-3-amino-4-(4-(3-chloropyridin-4-yl)phenyl)-1-((R)-3-(1-(3-methoxypropyl)-1H-benzo[d]imidazol-2-yl)piperidin-1-yl)butan-1-one]
< 100 |  | COCCCn1c([C@@H]2CCCN(C(=O)C[C@H](N)Cc3ccc(-n4ccnc4)cc3)C2)nc2ccccc21 [Compound 208, (R)-4-(4-(1H-imidazol-1-yl)phenyl)-3-amino-1-((R)-3-(1-(3-methoxypropyl)-1H-benzo[d]imidazol-2-yl)piperidin-1-yl)butan-1-one]
< 100 |  | COCCCn1c([C@@H]2CCCN(C(=O)C[C@H](N)Cc3ccc(-c4ccc(C(=O)NC(C)(C)CO)cc4)cc3)C2)nc2ccccc21 [Compound 183, 4′-((R)-2-amino-4-((R)-3-(1-(3-methoxypropyl)-1H-benzo[d]imidazol-2-yl)piperidin-1-yl)-4-oxobutyl)-N-(1-hydroxy-2-methylpropan-2-yl)biphenyl-4-carboxamide]
